Reference: patent US20170224772A1, “COMPOSITION AND KIT FOR PREVENTION OR TREATMENT OF ARTHRITIS, AND METHOD USING THE SAME” (Samsung Electronics Co., Ltd., priority 2014, published 2017)
Marks after values point to notes of the source that are not given here.

How the values were obtained:
Assay type in all cases: in vivo, mouse (DBA/1)
[1] = tested on: Mice in which rheumatoid arthritis was induced; assay: Assessment of arthritis severity (score of edema and flare at fore and hind paws); conditions: 0-4 per leg, maximum 16; after three times of administration; in comparison with negative control group
Description: (§1) Chicken type II collagen (Sigma-Aldrich) was mixed with 0.05 M acetic acid at 4° C. to the concentration of 2 mg/ml. The resulting mixture and Freund's complete adjuvant (CFA) (Sigma-Aldrich) were mixed at an equal amount ratio, and then the resulting mixture was homogenized at 30000 rpm for three minutes by using a homogenizer (Polytron PT3100D) to prepare an antigen material for administration. For a first immunization, the antigen material for administration was intradermally injected to a mouse tail (DBA/1 mouse, six weeks old) (Day 1). Three weeks later, the CFA was replaced by Freund's incomplete adjuvant (IFA) (Sigma-Aldrich), and boosting was performed by the same method.
(§2) Mice were divided into five groups, and saline solution, hASCs, and CTLA4Ig-hASC were intravenously injected to mouse tails on Day 63, Day 70, Day 77, and Day 84 after immunization as shown in Table 1 below.
In the mice of Example 1-2, from Day 62 after the immunization, the severity of arthritis at the fore paw and the hind paw was assessed three times per week in a score from 0 point (No arthritis) to 4 point (Severe arthritis) according to the degree of edema and flare. The assessment was performed at each leg with the maximum possible score of 16. The clinical score was measured at each mouse by Day 90 after the immunization. […]

[2] = tested on: Mice in which rheumatoid arthritis was induced; assay: ELISA of anti-mouse type II collagen antibody, C-telopeptide I and C-telopeptide II in serum; conditions: comparison among negative control and treatment groups
Description: as §1, with “method. […]” for “method.”
In the serum obtained in Example 1-2, anti-mouse type II collagen antibody, C-terminal telopeptide of Type I collagen (C-telopeptide I) that was a Type I collagen discharged during osteoclastic bone resorption, and C-terminal telopeptide of Type II collagen (C-telopeptide II) that was a chondrolysis product were detected by ELISA.
Specifically, anti-mouse type II collagen antibody, C-telopeptide I, and C-telopeptide II in the serum were measured by using an anti-mouse type II antibody collagen ELISA kit (Astarte Biologics), RatLap™ EIA kit (Immunodiagnostic Systems Ltd.), and a type II collagen ELISA kit (CUSABIO), respectively. […]

cytokine [3] = assay: Multiplex measurement of cytokine concentration in serum
Description: as §2
(§3) To verify the variation of cytokine expression according to transplantation of hASC or CTLA4Ig-hASC, the serum, knee extract, splenocytes, and lymph node cells obtained in Example 1-2 were prepared.
(§4) The cytokine concentration in serum, knee extract, and the obtained supernatant of the culture solutions of splenocytes and lymph node cells was measured by using a multiplex cytokine/chemokine kit (Milliplex MAP mouse cytokine/chemokine kit, Millipore) by following the protocol provided by the manufacturer. As cytokines, tumor necrosis factor (TNF)-αinterferon (IFN)-α, interleukin (IL)-1α, IL-1β, IL-2, IL-4, IL-6, IL-10, IL-12p70, IL-15, IL-17, keratinocyte-derived chemokine (KC), monocyte chemotactic protein (MCP)-1, macrophage inflammatory protein (MIP)-2, and regulated-upon-activation normal T-cell expressed and secreted (RANTES) were measured.
(§5) The cytokine concentration (pg/ml) in the splenocyte culture medium that was cultured in the presence of Type II collagen, ConA, an LPS is shown in Tables 4 to 6, respectively. The cytokine concentration (pg/ml) in the lymph node cell culture solution that was cultured in the presence of ConA is shown in Table 7.
(§6) The data obtained from each group was compared by performing a Kruskal Wallis test (†: P<0.05) or a (Mann-Whitney U test) (*: significant difference in comparison with the negative control group (p<0.05)).

cytokine [4] = assay: Multiplex measurement of cytokine concentration in knee extract
Description: as §2, §3, §4, §5, §6

cytokine [5] = assay: Cytokine concentration in splenocyte culture medium, cultured in the presence of Type II collagen; conditions: Type II collagen 100 μg/ml, 48 hours
Description: as §2, §3
(§7) Splenocytes of each group were separated. 2.5×10^5/well of splenocytes cultured in 96-well plate (Nunc) in a final volume of 200 μl including or not including 100 μg/ml of Type II collagen (Sigma Aldrich), 2.5 μg/ml of concanavalin A (ConA) (Sigma Aldrich), and 2.5 μg/ml of lipopolysaccharide (LPS) (Sigma Aldrich). The cells were incubated in humidified air at 37° C. for 48 hours. Then, the supernatant of the splenocyte culture medium was obtained and stored at −70° C. By the same method, lymph node cells were cultured in a culture medium including ConA, and the supernatant of lymph node cell culture solution was obtained.
as §4
as §5, with “7. […]” for “7.”

cytokine [6] = assay: Cytokine concentration in splenocyte culture medium, cultured in the presence of ConA; conditions: ConA 2.5 μg/ml, 48 hours
Description: as §2, §3, §7, §4, §5, §6

cytokine [7] = assay: Cytokine concentration in splenocyte culture medium, cultured in the presence of LPS; conditions: LPS 2.5 μg/ml, 48 hours
Description: as §2, §7, §4, §6

cytokine [8] = assay: Cytokine concentration in lymph node cell culture solution, cultured in the presence of ConA
Description: as §2, §3
Splenocytes of each group were separated. 2.5×10^5/well of splenocytes cultured in 96-well plate (Nunc) in a final volume of 200 μl including or not including 100 μg/ml of Type II collagen (Sigma Aldrich), 2.5 μg/ml of concanavalin A (ConA) (Sigma Aldrich), and 2.5 μg/ml of lipopolysaccharide (LPS) (Sigma Aldrich). […]
as §4, with “measured. […]” for “measured.”

[9] = tested on: Mice in which rheumatoid arthritis was induced; assay: Histopathological assessment of knee cartilage (H&E, Safranin O); conditions: H&E and Safranin O, Week 13 after first immunization
Source text: as §2
(§8) Knee cartilage tissues were stained to investigate the degree of cartilage injury and bone injury by rheumatoid arthritis, and micro-computed tomography images were obtained to verify morphologic defects in paw joints.
In Week 13 after the first immunization, knee cartilage tissues were obtained from the animals of Example 1-2. The obtained knee cartilage tissues were fixed by using 10% (v/v) neutral buffered formalin (Sigma-Aldrich), and the resulting solution was stirred by using a rapid decalcifier (Thermo Scientific) for 24 hours to decalcify. When an osseous tissue was easily cut by a razor, it was assumed that the tissue was completely decalcified. The decalcified osseous tissue was dehydrate and embedded in paraffin. To assess histopathological injury, the paraffin-embedded tissue was cut into 4 μm-thick slices, and the paraffin was removed from the slices by using xylene. Then, the slices were rehydrated by using a graded alcohol, and stained by using hematoxylin and eosin (H&E) (DAKO) and Safranin O (IHC World). […]

[10] = tested on: Mice in which rheumatoid arthritis was induced; assay: Micro-CT verification of morphologic defects in paw joints; conditions: score 0-4
Source text: as §2, §8
To verify morphological defects in paw joints, the mice paw obtained in Example 1-2 were fixed by using 4%(v/v) formalin (Sigma-Aldrich), and images of the mouse paws were obtained by using Inveon Preclinical CT (Siemens Healthcare) that is a micro-CT scanner at 40 μm of thickness, 0.6 second of exposure time, 70 keV of […] energy, and 400 μA of current. The images were reconstructed into three-dimensional images by using IRW software (Siemens Healthcare).
The data were compared among the groups by performing an ANOVA and then Tukey's multiple comparison tests. A significant difference in comparison with the negative control group was marked as “*” (p<0.05).

CN(Cc1cnc2nc(N)nc(N)c2n1)c1ccc(C(=O)N[C@@H](CCC(=O)O)C(=O)O)cc1 [MTX, methotrexate]
arthritis severity score [1]: a pattern that was similar to that of the negative control group
concentration of C-telopeptide I in serum [2]: not significantly different
IL-6 concentration (cytokine [3]): 161.10 ± 59.69 pg/mL
MIP-2 concentration (cytokine [3]): 17.36 ± 8.79* pg/ml
TNF-α concentration (cytokine [3]): 5.22 ± 1.37 pg/mL
IL-1β concentration (cytokine [4]): 4.54 ± 2.88 pg/mL
IL-6 concentration (cytokine [4]): 19.37 ± 11.87 pg/mL
KC concentration (cytokine [4]): 305.82 ± 147.86 pg/mL
MIP-2 concentration (cytokine [4]): 50.36 ± 19.78 pg/mL
RANTES concentration (cytokine [4]): 0.20 ± 0.07* pg/ml
IL-10 concentration (cytokine [5]): 3.75 ± 0.89 pg/mL
IL-17 concentration (cytokine [5]): 4.73 ± 2.01 pg/mL
MCP-1 concentration (cytokine [5]): 591.43 ± 222.2 pg/mL
IL-1α concentration (cytokine [6]): 21.02 ± 3.77 pg/mL
IL-6 concentration (cytokine [6]): 279.78 ± 71.12 pg/mL
IL-10 concentration (cytokine [6]): 80.76 ± 23.19 pg/mL
IL-17 concentration (cytokine [6]): 1345.14 ± 590.38 pg/mL
KC concentration (cytokine [6]): 10.78 ± 1.86 pg/mL
MCP-1 concentration (cytokine [6]): 549.99 ± 220.33 pg/mL
IL-1α concentration (cytokine [7]): 112.01 ± 27.82 pg/mL
IL-4 concentration (cytokine [7]): 0.37 ± 0.24 pg/mL
IL-6 concentration (cytokine [7]): 4676.79 ± 1097.10 pg/mL
KC concentration (cytokine [7]): 199.78 ± 50.25 pg/mL
MCP-1 concentration (cytokine [7]): 250.79 ± 87.01 pg/mL
MIP-2 concentration (cytokine [7]): 2022.27 ± 409.37 pg/mL
RANTES concentration (cytokine [7]): 128.44 ± 24.46 pg/mL
TNF-α concentration (cytokine [7]): 90.65 ± 20.41 pg/mL
IL-10 concentration (cytokine [8]): 23.11 ± 4.08 pg/mL
destruction of the joint cartilage [9]: severely damaged
mice showing a severe morphological defect in the paw joints [10]: four mice out of the seven mice
